We go through 2 molecules from US11077114B2, “Stabilized formulations of CNS compounds” (Supernus Pharmaceuticals, Inc., priority 2010, dated 2021).

Where a name gives a salt, the structure may show the parent alone.

For data set [1] the following is noted: cited from earlier work.
Data set [2] in a line: pH dependent solution state stability in phosphate buffer at 37° C. It is filed as physicochemical. Conditions: 24 hour exposure.
Data set [3] is described as follows: Molindone hydrochloride solubility profile at ambient conditions. Format: physicochemical. Conditions: acidic to slightly acidic media versus neutral to slightly alkaline pH; FIG. 1. An excerpt: As a weakly basic drug, molindone is typically included into formulations in the form of a salt, such as chloride, sulfate, phosphate, monohydrogenphosphate, dihydrogenphosphate, bromide, iodide, acetate, propionate, decanoate, caprylate, formate, oxalate, malonate, succinate, fumarate, maleate, citrate, lactate, tartrate, methanesulfonate, mandelate, and the like.

With `CCc1c(C)[nH]c2c1C(=O)C(CN1CCOCC1)CC2` (stereo not drawn) [Molindone hydrochloride], the tmax in data set [1] (following oral administration) was 1 to 1.5 h. For the same molecule, in data set [1] (oral dose), the plasma elimination half-life result is “about 2 hours”.

For the molecule `CCc1c(C)[nH]c2c1C(=O)C(CN1CCOCC1)CC2` (stereo not drawn) [Molindone, 3-Ethyl-6,7-dihydro-2-methyl-5-(morpholinomethyl)indol-4(5H)-one], the figures for the loss in data set [2] (pH 6.0 phosphate buffer), in data set [2] (pH 6.8 phosphate buffer) and in data set [2] (pH 7.5 phosphate buffer) were 3%, 6.4% and 7.5%, respectively. In addition, in data set [3], the “solubility versus pH (in words)” value is recorded as “greater solubility”.
